Data from patent publication US5723449A, “Methods and compositions for inhibiting uridine secretion” (priority 1996, dated 1998).
Where two headings read alike, the source gives them in different places.

Legend:
bone marrow cell growth = conditions: cited from earlier work; for limiting toxicity: in vivo
[1] = Administration of dilazep to Rhesus monkeys, plasma uridine levels and toxicity; type: in vivo; conditions: dilazep 1 to 2 mg/kg of body weight per day
Experimental: Uridine secretion can be inhibited by administering compounds of the type noted above by Formula (I) or by administering the uridine competing compounds noted above. Uridine secretion inhibiting compounds of the type denoted by Formula (I) typically are administered at preferred doses in the range of about 1 to 5 mg/kg of body weight 2 to 3 times per day. Uridine competing compounds preferably are administered at doses ranging from 5 to 50 mg/kg of body weight 2 to 3 times per day. […] Moreover, such treatment increases by about 4 to 5-fold, the plasma half-life of uridine. These uridine levels are roughly equivalent to those obtained by administering high doses of uridine (1 to 3 g/m^2 per day), without the toxic side effects associated with uridine administration.

[2] = tested on: isolated rat skeletal muscle; conditions: low concentrations of uridine (10^-4 M); cited from earlier work
[3] = tested on: hereditary orotic aciduria; conditions: human, in vivo; cited from earlier work
GABA receptor = conditions: cerebellar membranes and brain areas associated with convulsions; cited from earlier work
[4] = Single subcutaneous dose of uridine with and without dilazep, plasma/urine uridine pharmacokinetics; type: in vivo, rhesus monkeys (Macaca mulatta); conditions: rhesus monkey, sc
Experimental: Single dose of Uridine and effect of Dilazep
The uridine was administered both with and without dilazep. When dilazep was given it was administered at either 1 or 2 mg/kg of body weight, dissolved in sterile phosphate-buffed saline (pH 7.4). Samples of blood (3 ml) were collected in heparinized tubes at 0, 5, 10, 15 and 30 minutes and 1, 2, 4 and 6 hours after injection. When possible, urine was also collected by cytocentesis at similar time intervals. The plasma and urine samples were frozen at -20° C. until analysis.
The proteins were removed by centrifugation, and sample temperature was maintained at 5° C. The supernant was removed and an equivalent amount of a 1:1 mixture of ice cold trioctylamine and 1,1,2-trichlorotrifluoroethane (freon) was added. […] Reversed-phased chromatography was performed using a Hypersil ODS 5 μm column (Jones Chromatography, Littleton, Colo.). Urine samples were filtered through a 0.45 μm pore size Acro LC 13 filter (Gelman Sciences, Ann Arbor, Mich.) to remove proteins and 50 μl aliquots were analyzed by HPLC. Isocratic elution was performed at 1 ml/min with 10 mM phosphoric acid and 10 μM heptane sulfonic acid (pH 3.1). Column temperature was maintained at 25° C., and the absorbance was measured at 254 nm. […] After adding 5 ml of Econo-Safe scintillation fluor (Research Products International Corp., Mount Prospect, Ill.), radioactivity was measured by using Beckman Model LS 5000TA liquid scintillation counter (Beckman Instruments, Inc., Fullerton, Calif.) equipped with an automatic quenching correction program. […] The detection limits were 2.0 μM.
The pharmacokinetic parameters of uridine was estimated by […] model-independent methods using a SIPHAR/Base program. The AUC was determined by the trapeziodal rule with extrapolation to time infinity using the terminal disposition slope (K) generated by a weighted nonlinear least-squares regression of an exponential fit of the data, with the weighted square factor set as the reciprocal of the calculated concentration squared. […] The peak plasma concentration (Cmax) values and time to peak plasma concentration (Tmax) values were observed experimental values. Renal clearance (CLR) of uridine was calculated by dividing the […] by the AUC.

heart tissue = heart tissue of rabbits; cited from earlier work
hearts [5] = conditions: hearts of dogs; cited from earlier work
hearts [6] = conditions: hearts of frogs; cited from earlier work
[7] = cited from earlier work
CCl4 damaged rat livers = conditions: cited from earlier work
hearts [8] = conditions: hearts of rats; cited from earlier work
[9] = cited from earlier work; remark: listed apart in the source
[10] = plasma, uridine parameter, 83.3 mg/kg uridine s.c., no dilazep

For `O=c1[nH]cc(F)c(=O)[nH]1` [5-FU, 5-fluorouracil], which limiting toxicity (bone marrow cell growth) is on record?
The limiting toxicity was “myelosuppression”.

With `Cc1cn([C@H]2C[C@H](N=[N+]=[N-])[C@@H](CO)O2)c(=O)[nH]c1=O` [AZT, 3'-azido-3'-deoxythymidine] as the compound, how does the limiting toxicity (bone marrow cell growth) read?
Its limiting toxicity is “myelosuppression”.

Which limiting toxicity (bone marrow cell growth) does the source give for `O=c1[nH]c(=O)n([C@H]2C[C@H](O)[C@@H](CO)O2)cc1F` [FdUrd, 5-fluoro-2'-deoxyuridine] here?
Its limiting toxicity is “myelosuppression”.

With `COc1cc(C(=O)OCCCN2CCCN(CCCOC(=O)c3cc(OC)c(OC)c(OC)c3)CC2)cc(OC)c1OC` [dilazep, N,N'-bis[3-(3,4,5-trmethoxybenzoyloxy)propyl] homopiperazine] as the compound, how does the toxicity [1] read?
Its toxicity is “without apparent toxicity”.

For `O=c1ccn([C@@H]2O[C@H](CO)[C@@H](O)[C@H]2O)c(=O)[nH]1` [uridine], which “glucose uptake and glycogen synthesis” value [2] is on record?
The value was “increase glucose uptake and glycogen synthesis”.

What about the “management of patients with hereditary orotic aciduria” value [3] of the same compound?
Its value is “effective to manage patients with hereditary orotic aciduria”.

What about the “effect on the GABA receptor” value (GABA receptor) of the same compound?
Its value is “may have an agonist effect on the receptor”.

What about the “protection (and reversal) from myelosuppression of pyrimidine analogues” value (bone marrow cell growth; in vitro and in vivo) of the same compound?
Its value is “Complete protection (and reversal)”.

What about the Cmax/C0 ([4]; in vivo, 83.3 mg/kg) of the same compound?
The Cmax/C0 was 10.7.

And the CL renal ([4]; in vivo, uridine parameter, 83.3 mg/kg uridine s.c., no dilazep, read-out: ClR (renal clearance of uridine) (converted))?
Its CL renal is 1.12 mL/min/kg.

What about the AUC [4, 10] of the same compound?
The AUC was 370 µM·h.

What about the Cmax [4, 10] of the same compound?
The Cmax was 175 µM.

What about the Tmax [4, 10] of the same compound?
The Tmax was 30 min.

What about the “myocardial performance, glucose uptake, glycogen synthesis and breakdown of ATP” value (heart tissue) of the same compound?
Its value is “increase myocardial performance, glucose uptake, glycogen synthesis and the breakdown of ATP”.

And the myocardial contractility (hearts [5])?
Its myocardial contractility is “increase myocardial contractility”.

What about the myocardial contractility (hearts [6]) of the same compound?
The myocardial contractility was “increase myocardial contractility”.

And the “concentration in blood plasma” value ([7]; endogenous, different species)?
Its value is 1 to 5 µM.

And the “plasma uridine entering the liver by the portal vein degraded in single pass” value ([7]; hepatic uridine phosphorylase)?
Its value is “More than 90%”.

And the “half life in the plasma” value ([7]; in vivo)?
Its value is “approximately 2 minutes”.

What about the “conjugating and excretory functions” value (CCl4 damaged rat livers) of the same compound?
Its value is “normalize conjugating and excretory functions”.

What about the myocardial contractility (hearts [8]) of the same compound?
Its myocardial contractility is “increase myocardial contractility”.

And the “urinary excretion of uridine” value ([9]; high doses of uridine (1 to 3 gm/m^2), several times per day)?
Its value is 15-40 % of the dose.

And the toxic side effects ([9]; high doses of uridine)?
Its toxic side effects is “phlebitis, pyrogenic reactions and diarrhea”.
